{"source": "patent US20240300935A1", "about": "“Nitrogen Oxide Donors of Beraprost Derivative and the Pharmaceutical Compositions with the Use Thereof” (GUANGZHOU KEMROCMED CO., LTD., priority 2021, published 2024)", "key": {"[1]": {"assay": "In vitro NO release test (Griess method)", "settings": "200 μM test compound solution mixed with 200 μM L-cysteine solution, 37° C.", "protocol": "NO was transiently oxidized in aqueous solution using released NO by Griess' method, NO^2− And Griess reagent form a complex, which has strong UV uptake at 540 nm to determine the amount of NO released by the compound. • 1) Preparation of solution: blank solution: 10 mL DMSO and 190 m L PBS mixed; G riess Reagent: sulfonamide (4.0 g), N-(1-naphthalyl) ethylenediamine dihydrochloride (0.2 g) and 10 mL 85% H3PO4 dissolved in 90 mL of distilled water, Blow until clear solution; L-cysteine solution: after accurate weighing of L-cysteine, Add a certain amount of PBS, Prepare a weighed 200 μM solution; Test compound solution: the exact weighing of the test compound, Dissolved in D MSO and diluted to a concentration of 1 mM, Then, when diluted in PBS, To a concentration of 200 μM.\n2) Formulation of standard curve equation: prepare sodium nitrite solution concentration: 0 ,0 , 1, 3, 6, 12.5, 25, 50, 100 μmol/L, 150 μL of each concentration, add 50 μL of Griess reagent mix, incubated in 37° C. constant temperature shaker for 30 min, the plate reader measured each tube absorbance at 540 nm, after subtracting the blank solution reading, the standard curve equation . . . 78.56.13.25 • 3) Test compound test: mix 2 mL of the test compound solution and L-cysteine solution, incubate in 37° C. constant temperature shakers for 120 min, take 150 μL of each mixture, add 50 μL of Griess reagent, then incubate in 37° C. constant temperature shaker for 30 min, the microplate measured each tube absorbance at 540 nm, then subtract the blank solution reading and substitute the value into the standard curve equation to obtain NO release."}, "[2]": {"system": "rats with hypoxic pulmonary hypertension", "assay": "In vivo test in rats with hypoxic pulmonary hypertension", "set-up": "species or system rat", "settings": "SD male rats, low pressure low oxygen chamber, 5 mg/kg, after four weeks, vs model group", "protocol": "• 1) Experimental instruments and materials, HX-200 animal ventilator, and SD male rats used in the experiment were all purchased from Yangzhou University. All control groups were reared in a normal environment, and the administration intervention and model groups were reared in the low pressure low oxygen chamber (air pressure 50 kPa, oxygen concentration 10%). • 2) Compound 15 was dissolved using DMSO/solutol/water (10/10/80). In the intervention group, the dose was 5 mg/kg, all rats were weighed weekly, survival was recorded, and pulmonary artery pressure was measured after four weeks. Rats (3 ml/kg) were anesthetized with chloral hydrate (100 g/L), fixed in the supine position, tracheotomy, and breathing assisted with a small animal ventilator (frequency 60 beats/min, 5 ml, breath ratio 4:5). Free the left third rib, a catheter connecting one end to the tension transducer was sent to the pulmonary artery, and the mean pulmonary artery pressure (mP AP) was recorded through the BL-420E Biofunction experimental system. […] The results of FIG. 1 show the effect of beraprost derivative compound 15."}, "[3]": {"system": "postmenopausal osteoporosis mouse model", "assay": "Therapeutic effect of osteoporosis, postmenopausal osteoporosis mouse model (ovariectomy)", "assay_type": "in vivo", "set-up": "Tb · N: unit not given here", "description": "• 1) Test materials; 1. Animal clean grade C57BL/6 strain, 8-10 weeks old not pregnant females were purchased from Yangzhou University. 2. Main reagents and instruments, Bujiale (estradiol valerate tablets, Bayer); mouse osteocalcin (osteocalcin, OC) enzyme-linked immunotest kit, alkaline phosphatase (alkaline phosphatase, ALP) test kit, tartrate acid phosphatase (StrACP) test kit (all the above kits were purchased in Nanjing). Dual-energy X-ray bone densitometer (HOLOGIC); ECLIPSE 50i microscope (Nikon); MUTISKANMK3 microplate reader (Thermo); tissue slicing equipment (including KD-TS3D1 biological tissue automatic dehydrmachine (Zhejiang Cody), TB-718 biological tissue automatic embedding machine (Hubei), R138 rotary slicer (Hubei), TK-212 automatic constant temperature drift instrument (Hubei), TK-213 automatic constant temperature dryer (Hubei), etc.). • 2) Test method: A animals were grouped, and the random method divided the female mice into 4 groups, namely, sham operation group, model group, positive drug group, and test drug group. B Preparation of postmenopausal osteoporosis mouse model, chloral hydrate anesthesia and removed the ovaries in the lying position. In the sham group, only the same volume of fat tissue near the ovaries was removed. Vaginal smear was performed on days 4-8 after ovariectomy to determine if the ovariectomy was complete. Method of c, on the third day after the operation, positive control drug (0.1 mL/10 g gavage), equal volume of 0.9%sodium chloride solution in sham group and model group, continuous gavage for 28 d. Test ResResults test: Blood and bone tissue samples after day 28. The following indicators were tested: (1) determination of bone density, lumbar L4-6 measurement of bone density by double energy X-ray bone density instrument. (2) Observation of bone tissue and morphology, the bone tissue and morphology changes were observed by tibial HE staining, mainly testing the trabecular volume ratio (bone volume/tissue volume, BV/TV) and the number of trabecular bone (trabecular bone number, Tb. N) and trabecular separation (trabecular separation, Tb. And sp) were the quantitative evaluation index. (3) For the determination of biological indicators ALP, StrACP, OC, and E 2 in mouse serum, blood was collected by enucleation method, and by kit and enzyme-linked adsorption assay."}, "[4]": {"system": "renal tubular epithelial cells in acute renal failure", "assay": "Renal tubular protective effect of acute renal failure (co-culture with isolated cells)", "assay_type": "cell-based, rat", "settings": "renal tubular epithelial cells from acute renal failure rats, 200 μg/mL", "description": "• 1) Test materials, glycerol (MacLean Company); CCK-8 kit, Annexin V-PE cell apoptosis detection kit, superoxide dismutase activity detection kit, malondialdehyde detection kit (Biyun Biotech); first anti-cysteine aspartate protease, caspase 3 and 9, B lymphocytoma-2 gene, Bcl-2-associated X protein (BAX, anti-rabbit), TGF-β 1, smad 3 (abcam, USA). Protein gel imager, microplate reader, and flow cytometer (Beckman Coulter, Type CytoFLEX). Clean-grade SD rats were purchased from Yangzhou University. • 2) Test method, the model of acute renal failure of rat hind limb injection was used. After 24 h, the level of BUN and Cr increased in rat serum, vascular necrosis of renal interstitium, and inflammatory cell infiltration were regarded as successful model establishment. Some renal tissues from model animals were taken for in vitro culture, renal tubular epithelial cells were isolated and identified, and test drug co-culture (0-24 hours) was added. Changes of various biochemical indicators and apoptosis were determined. […] Conclusion Test compounds can promote tubular epithelial cells proliferation, inhibit apoptosis, inhibit oxidative stress, and slow the damage of renal tubular epithelial cells by inhibiting the expression of proapoptotic proteins."}, "[5]": {"system": "platelet aggregation induced by ADP", "assay": "Antiplatelet aggregation effect, ADP-induced, turbidimetry in platelet-rich plasma", "assay_type": "cell-based", "settings": "Homo sapiens, 2 min; platelet rich plasma of healthy subjects; 25 μL of 50 nM compound solution in 225 μL plasma, 37° C. 2 min; ADP final 2 μM; read-out: The rate of platelet aggregation inhibition", "protocol": "• 1) Experimental material: ADP, epinephrine, collagen (bilBio) • 2) Experimental method: blood samples provided by healthy subjects were mixed blood with 3.8% citric acid solution and centrifuged at 160 r/min to obtain platelet-rich plasma. To calibrate the data, the obtained platelet-rich plasma was further centrifuged at 2000 r/min to obtain platelet-poor plasma, stored in a −20° C. refrigerator. Testing was performed using Born I's turbiometry. 225 μL of platelet rich plasma was added to the reaction cup, the embodiment compound was configured as 50 nM solution (25 m M Tris-acetate and 120 m M N a Cl), 25 μL of embodiment compound solution was added and after incubation at 37° C. for 2 min, 5 μL of ADP (final concentration 2 μM) was added for platelet aggregation induction. To assess the degree of platelet aggregation, the maximum absorbance value took the data after ADP, thus calculating the inhibition rate of ADP-induced platelet aggregation by each embodiment compound. According to the data in Table 6 below, the compounds of the present application embodiment all have a good effect of inhibiting the platelet aggregation induced by ADP."}, "[6]": {"settings": "tibial HE staining, ovariectomised C57BL/6 mice, gavage 28 d"}}, "data": [{"smiles": "CC#CCC(C)[C@@H](O)/C=C/[C@H]1[C@@H]2c3cccc(CCCC(=O)OCC4CCCC(CO[N+](=O)[O-])C4)c3O[C@@H]2C[C@@H]1O", "note": "(stereo partly shown) [Compound 15]", "values": [{"measurement": "120 min NO^2−", "setting": "[1]", "result": 12.7, "unit": "µM"}, {"measurement": "mean pulmonary artery pressure (mPAP)", "setting": "[2]", "result": "lower compared with the model group"}, {"measurement": "ALP", "setting": "[3]; mouse serum, day 28", "result": "19 ± 2.2 King-Armstrong unit/100 mL"}, {"measurement": "E2", "setting": "[3]; mouse serum, day 28", "result": "35 ± 4", "unit": "ng/mL"}, {"measurement": "OC", "setting": "[3]; mouse serum, day 28", "result": "1.7 ± 0.2", "unit": "ng/mL"}, {"measurement": "Str ACP", "setting": "[3]; mouse serum, day 28", "result": "41 ± 3.6", "unit": "U/L"}, {"measurement": "BV/VT", "setting": "[3]; [6]", "result": "0.29 ± 0.05"}, {"measurement": "Tb · N", "setting": "[3]; [6]", "result": "7.5 ± 0.6"}, {"measurement": "Tb · sp", "setting": "[3]; [6]", "result": "152 ± 15", "unit": "μm"}, {"measurement": "B AX protein level", "setting": "[4]", "result": "0.32 ± 0.12"}, {"measurement": "B CL2 protein level", "setting": "[4]", "result": "0.56 ± 0.11"}, {"measurement": "MDA", "setting": "[4]", "result": "489 ± 38", "unit": "Nnol/g protein"}, {"measurement": "S mad3 protein level", "setting": "[4]", "result": "0.19 ± 0.07"}, {"measurement": "SOD", "setting": "[4]", "result": "1016 ± 117", "unit": "U/g egg white"}, {"measurement": "T GF-β1 protein level", "setting": "[4]", "result": "0.24 ± 0.05"}, {"measurement": "The rate of apoptosis", "setting": "[4]", "result": "9 ± 0.7", "unit": "%"}, {"measurement": "caspase3 protein level", "setting": "[4]", "result": "0.28 ± 0.06"}, {"measurement": "caspase9 protein level", "setting": "[4]", "result": "0.48 ± 0.1"}, {"measurement": "inhibition at 0.005 µM", "setting": "[5]", "result": 92, "unit": "%"}]}]}
